Experimental data: patent EP0288647B1, “Derivatives of 5-[2-(1-pyrrolidinyl)ethoxy]-p-cymene, process for their preparation, and medicaments containing these derivatives” (INSTITUT DE RECHERCHES CHIMIQUES ET BIOLOGIQUES APPLIQUEES …, priority 1987, dated 1988)

Columns and labels:
[1] = tested on: canal déférent isolé du rat; test: In vitro α-adrenolytic activity: antagonism of noradrenaline contractions of isolated rat vas deferens; type: cell-based
Source text: (§1) Elle a été étudiée sur le canal déférent du rat et sur l'urètre du lapin.
(§2) La noradrénaline provoque des contractions du canal déférent isolé du rat et de l'urètre isolé du lapin. La présence dans le bain de l'organe de substances α-bloquantes antagonise ces contractions : l'utilisation de concentrations croissantes de substances α-bloquantes permet de calculer : • la pA₂ des composés sur le canal déférent du rat; la pA₂ étant le logarithme changé de signe de la concentration molaire du produit en présence de laquelle il faut multiplier par deux la concentration de noradrénaline pour obtenir le même effet qu'en l'absence du produit; • la pD'₂ des composés sur l'urètre du lapin; la pd'₂ étant le logarithme changé de signe de la concentration molaire du produit en présence de laquelle l'activité contracturante de la noradrénaline est divisée par deux.

urètre isolé du lapin = test: In vitro α-adrenolytic activity: antagonism of noradrenaline contractions of isolated rabbit urethra; type: cell-based
Source text: as §1, §2

[2] = tested on: toxicité de la noradrénaline; test: In vivo adrenolytic activity: protection against death caused by i.v. noradrenaline; conditions: rat, 30 min before noradrenaline 0,4 mg/kg⁻¹ I.V.
Method: La noradrénaline injectée à fortes doses par voie intraveineuse provoque la mort de 100 % des animaux dans les 15 minutes qui suivent son injection. La mort survient par oedème pulmonaire dû à l'hypertension artérielle induite par la stimulation des récepteurs adrénergiques. L'administration préalable de substances α-adrénolytiques par voie orale permet de réduire la toxicité de la noradrénaline. Les produits sont administrés par voie orale à des temps variables entre 30 minutes et 6 heures avant l'injection intraveineuse (I.V.) de noradrénaline (0,4 mg/kg⁻¹).

[3] = tested on: hyperpression urétrale neurogène et pression artérielle; test: Urethral specificity in the anaesthetised dog: neurogenic urethral hyperpressure (hypogastric nerve stimulation) and arterial pressure; type: in vivo, chien; conditions: product i.v.; for Hypotension artérielle DE. 20: dose causing 20 % arterial hypotension; for Hyperpression urétrale neurogène DI. 50: electrical stimulation of the hypogastric nerve
Source text: L'effet des produits B 1007, B 1024, B 1125 et B 1134, injectés par voie intraveineuse sur l'hyperpression urétrale neurogène et sur la pression artérielle, a été recherché chez le chien anesthésié.
La stimulation électrique du nerf hypogastrique provoque une augmentation de la pression urétrale par libération de noradrénaline à partir des fibres sympathiques du nerf.
Les substances α-bloquantes antagonisent en fonction des doses ces augmentations de pression urétrale et provoquent une hypotension artérielle par action bloquante au niveau des récepteurs vasculaires.
On calcule la dose qui inhibe de 50 % (DI. 50) les effets de la stimulation du nerf hypogastrique sur la pression urétrale et la dose qui provoque une hypotension artérielle de 20 % (DE. 20).

[4] = tested on: pressions artérielle et urétrale; test: In vivo α-blocking activity at urethral and vascular level: noradrenaline-induced rise of arterial and urethral pressure in the anaesthetised rabbit; design: species or system lapin; conditions: product i.v.
Source text: L'activité α-bloquante "in vivo" aux niveaux urétral et vasculaire chez le lapin anesthésié a été recherchée par administration intraveineuse des produits B 1007, B 1024, B 1058, B 1125 et B 1134.
L'injection intraveineuse de noradrénaline provoque chez le lapin une augmentation dose dépendante des pressions artérielle et urétrale. Les substances α-bloquantes injectées par voie intraveineuse antagonisent en fonction des doses ces augmentations de pression. On calcule la dose inhibitrice 50 % (D.I. 50) définie comme étant la dose de produit provoquant une diminution de 50 % des effets de la noradrénaline sur les pressions artérielle et urétrale.

[5] = Acute toxicity, lethal dose 50 after oral and intravenous administration; type: in vivo, souris; conditions: mouse; for DL 50 I.V.: intravenous administration; for DL 50 P.O.: oral administration
Source text: Les doses létales 50 suivantes ont été obtenues après administration orale (P.O.) et intraveineuse (I.V.) des substances chez la souris.
Les résultats obtenus sont consignés dans le tableau I. TABLEAU I

SMILES	Action α-bloquante vis-à-vis de la noradrénaline sur canal déférent isolé pA₂ [1]	Action α-bloquante vis-à-vis de la noradrénaline sur urètre isolé pD'₂ (urètre isolé du lapin)	% de protection contre la mort ([2]; 50 mg/kg⁻¹ p.o.)	Hypotension artérielle DE. 20 [3]	Hyperpression urétrale neurogène DI. 50 [3]	D.I. 50 vis-à-vis de l'hypertension artérielle [4]	D.I. 50 vis-à-vis de l'hypertension urétrale [4]	DL 50 I.V. [5]	DL 50 P.O. [5]	% de protection contre la mort ([2]; 25 mg/kg⁻¹ p.o.)
Cc1ccc(C(C)C)c(OCCN2CCCC2)c1.Cl [B 1007, chlorhydrate du [(pyrrolidinyl-1)-2-éthoxy]-3 p-cymène]	6,74	6,88	60%	2 mg/kg⁻¹	0,35 mg/kg⁻¹	7,63 mg/kg⁻¹	0,34 mg/kg⁻¹	75 mg/kg⁻¹	330 mg/kg⁻¹	
CC(=O)Oc1cc(C(C)C)c(OCCN2CCCC2)cc1C.Cl [B 1024, chlorhydratede l'acétoxy-2[(pyrrolidinyl-1)-2-éthoxy]-5 p-cymène]	6,98	6,38		8 mg/kg⁻¹	0,07 mg/kg⁻¹	4,14 mg/kg⁻¹	0,23 mg/kg⁻¹	18 mg/kg⁻¹	100 mg/kg⁻¹	70%
Cc1cc(OCCN2CCCC2)c(C(C)C)cc1O.Cl [B 1058, chlorhydratede l'hydroxy-2[(pyrrolidinyl-1)-2-éthoxy]-5 p-cymène]	7,18	6,69	90%			1,22 mg/kg⁻¹	0,13 mg/kg⁻¹	17 mg/kg⁻¹	80 mg/kg⁻¹	
CCCC(=O)Oc1cc(C(C)C)c(OCCN2CCCC2)cc1C.Cl [B 1132, chlorhydrate du butyryloxy-2[(pyrrolidinyl1)-2-éthoxy]-5 p-cymène]	7,35	6,0	90%						≃ 500 mg/kg⁻¹	
CC(=O)Oc1cc(C(C)C)c(OCCN(C)C)cc1C [Thymoxamine, reference compound]	7,25	7,03	80%	0,27 mg/kg⁻¹	0,09 mg/kg⁻¹	2,72 mg/kg⁻¹	0,5 mg/kg⁻¹	72,5 mg/kg⁻¹	300 mg/kg⁻¹	
